pIC50: −log10 of the molar value. ≈ marks a conversion by molar mass, not a printed value.
How the values were obtained:
[1] = system: Staphylococcus aureus K2378 (overexpresses the efflux pump NorA from a multicopy plasmid); test: Efflux pump inhibition assay with sub-inhibitory ciprofloxacin; format: cell-based
Experimental: The efflux pump inhibition potential of the bis-indolic derivatives was tested using two steps. In a first step, the intrinsic antibacterial activity of the compounds was assayed against the following strains:
The following experimental protocol was used: indolic derivatives (initially solubilised in DMSO at 10 mg/mL) were dispensed in a 96-wells microplate by two fold serial dilutions in Muller-Hinton medium (MH, Bio Rad) using a Biomek 2000 (Beckman) handling robot. 100 μL of the bacterial inoculum (an overnight culture at 37° C. in 5 mL MH diluted 100-fold) was then added in each well. The total volume was 200 μL in each well and the final bacteria concentration 10^6 CFU/mL (CFU: colony forming unit). The highest final indolic derivative concentration was 128 mg/L. Growth was assayed with a microplate reader by monitoring absorption at 620 nm after 1, 2, 5, 7 and 24 h incubation at 37° C. In addition, the plates were read visually after 24 hours incubation. Cultures containing 5 μL DMSO were used as growth controls. In addition, two controls containing a sub-inhibitory or a inhibitory antibiotic concentration for the tested strain were performed. The antibiotics used were ampicillin (0.5 and 32 μg/mL) for E. coli, kanamycin (0.5 and 16 μg/mL) for S. aureus ATCC 25923, ciprofloxacin (4 and 64 mg/L) for S. aureus 1199B, ciprofloxacin (0.5 and 2 mg/L) for S. aureus K2378. All experiments were performed in duplicate.
Efflux pump inhibition assays were then performed against resistant Staphylococcus aureus strains SA 1199B and SA K2378 for bis-indolic derivatives. […] The minimal inhibitory concentration (MIC) of the bis-indolic compound allowing a complete inhibition of the bacterial growth in the presence of ciprofloxacin was determined.

S. pneumoniae ATCC 6303 = test: MIC microdilution (Table I-1); format: cell-based, Streptococcus pneumoniae; conditions: Streptococcus pneumoniae, ATCC6303, read after 18 hours, read-out: MIC
Experimental: The microdilution method recommended by the Clinical and Laboratory Standard Institute [M07-A8, Vol. 29, N^o 2] was used. The activity of indolic compounds was tested against 29 bacterial strains belonging to 17 different species and 12 different genera (Staphylococcus, Streptococcus, Enterococcus, Listeria, Bacillus, Haemophilus, Escherichia, Klebsiella, Enterobacter, Serratia, Pseudomonas, and Acinetobacter). Bacterial inocula were prepared in Mueller Hinton broth (MH2, bioMerieux, Marcy L'Etoile, France), supplemented with 10% sheep blood for fastidious species (i.e., Streptococcus pneumoniae and Haemophilus influenzae). They were dispensed in 96 well microtiter plates (5×10^5 CFU/ml of final inoculum). Indolic compounds were added to the wells as to obtain two-fold serial concentrations (0.50-128 mg/L of final concentrations). Plates were incubated at 37° C. in ambient air, or at 37° C. in 5% CO2 enriched atmosphere for fastidious species. […] Drug-free cultures served as growth controls. Cultures receiving gentamicin, ciprofloxacin or cefotaxime served as positive controls.

E. faecium CIP 54.32 = test: MIC microdilution (Table I-1); format: cell-based; conditions: Enterococcus faecium, CIP54, read after 18 hours, read-out: MIC
Procedure, shortened: (§1)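 CLSI (M07-A8) broth microdilution in Mueller Hinton broth at a final inoculum of 5×10^5 CFU/ml. Compounds were tested as two-fold serial dilutions across 0.50-128 mg/L final concentrations, and plates were incubated at 37° C. in ambient air.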

S. aureus ATCC 25923 = test: MIC microdilution (Table I-1); format: cell-based; conditions: Staphylococcus aureus, ATCC25923, read after 18 hours
Procedure, shortened: as §1

[2] = system: Bacillus subtilis CIP 5262; test: MIC microdilution (Table I-1); format: cell-based; conditions: CIP5262, read after 18 hours, read-out: MIC
Procedure, shortened: as §1

[3] = system: Acinetobacter baumanii ATCC 19606; test: MIC microdilution (Table I-1); format: cell-based; conditions: Acinetobacter baumannii, ATCC19606, read after 18 hours
Procedure, shortened: as §1

[4] = system: Klebsiella pneumoniae ATCC 35657; test: MIC microdilution (Table I-1); format: cell-based; conditions: ATCC35657, read after 18 hours, read-out: MIC
Procedure, shortened: as §1

[5] = system: Pseudomonas aeruginosa CIP 5933; test: MIC microdilution (Table I-1); format: cell-based; conditions: CIP5933, read after 18 hours
Procedure, shortened: as §1

[6] = system: Serratia marcescens CIP 103551; test: MIC microdilution (Table I-1); format: cell-based; conditions: CIP103551, read after 18 hours
Procedure, shortened: as §1

[7] = system: Enterobacter cloacae ATCC 13047; test: MIC microdilution (Table I-1); format: cell-based; conditions: ATCC13047, read after 18 hours
Procedure, shortened: as §1

S. pneumoniae ATCC 49619 = test: MIC microdilution (Table I-1); format: cell-based; conditions: Streptococcus pneumoniae, ATCC49619, read after 18 hours
Procedure, shortened: as §1

S. mitis CIP 103335 = test: MIC microdilution (Table I-1); format: cell-based; conditions: Streptococcus mitis, CIP103335, read after 18 hours, read-out: MIC
Procedure, shortened: as §1

[8] = system: S. pyogenes (group A) CIP 104226; test: MIC microdilution (Table I-1); format: cell-based; conditions: Streptococcus pyogenes, CIP104226, read after 18 hours, read-out: MIC
Procedure, shortened: as §1

[9] = system: Escherichia coli ATCC 25922; test: MIC microdilution (Table I-1); format: cell-based; conditions: ATCC25922, read after 18 hours
Procedure, shortened: as §1

E. faecalis ATCC 29212 = test: MIC microdilution (Table I-1); format: cell-based; conditions: Enterococcus faecalis, ATCC29212, read after 18 hours, read-out: MIC
Procedure, shortened: as §1

[10] = system: HCT116 (human colon tumor); test: In vitro cytotoxicity; format: cell-based; conditions: HCT-116, HCT116, in DMSO, duplicate
[11] = in the presence of ciprofloxacin 0.25 mg/L (MIC/8)

Compound | CMI, mg/L (Ciprofloxacin concentration, mg/L) [1, 11] | MIC (S. pneumoniae ATCC 6303) [µg/mL] | MIC (E. faecium CIP 54.32) [µg/mL] | MIC (S. aureus ATCC 25923) [µg/mL] | MIC [2] [µg/mL] | MIC [3] [µg/mL] | MIC [4] [µg/mL] | MIC [5] [µg/mL] | MIC [6] [µg/mL] | MIC [7] [µg/mL] | MIC (S. pneumoniae ATCC 49619) [µg/mL] | MIC (S. mitis CIP 103335) [µg/mL] | MIC [8] [µg/mL] | MIC [9] [µg/mL] | MIC (E. faecalis ATCC 29212) [µg/mL] | pIC50 [10] | CMI, mg/L (Ciprofloxacin concentration, mg/L) ([1]; in the presence of ciprofloxacin 0.5 mg/L (MIC/4))
O=C(C(=O)N1CCOCC1c1c[nH]c2ccccc12)c1c[nH]c2ccccc12 (centres unmarked) [Compound 6b, 1-(3-(1H-Indol-3-yl)morpholino)-2-(1H-indol-3-yl)ethane-1,2-dione] | 16 (0.25) mg/L | > 128 | > 128 | > 128 | > 128 | > 128 | > 128 | > 128 | > 128 | > 128 | > 128 | > 128 | > 128 | > 128 | > 128 |  | 
O=C(C(=O)N1CCCCC1c1c[nH]c2ccc(Br)cc12)c1c[nH]c2ccc(Br)cc12 (centres unmarked) [Compound 6d, 1-(5-Bromo-1H-indol-3-yl)-2-(2-(5-bromo-1H-indol-3-yl)piperidin-1-yl)ethane-1,2-dione] | 8 (0.25) mg/L | > 128 | > 128 | > 128 | > 128 | > 128 | > 128 | > 128 | > 128 | > 128 | > 128 | > 128 | > 128 | > 128 | > 128 |  | 
CC(C)(C)OC(=O)N1CCN(C(=O)C(=O)c2c[nH]c3ccccc23)C(c2c[nH]c3ccccc23)C1 (centres unmarked) [Compound 6c, tert-Butyl 4-(2-(1H-indol-3-yl)-2-oxoacetyl)-3-(1H-indol-3-yl)piperazine-1-carboxylate] | 16 (0.25) mg/L | > 128 | > 128 | > 128 | > 128 | > 128 | > 128 | > 128 | > 128 | > 128 | > 128 | > 128 | > 128 | > 128 | > 128 |  | 
CC(NC(=O)C(=O)c1c[nH]c2ccc(Br)cc12)c1c[nH]c2ccc(Br)cc12 (centres unmarked) [Compound 5, 2-(5-Bromo-1H-indol-3-yl)-N-(1-(5-bromo-1H-indol-3-yl)ethyl)-2-oxoacetamide] |  | 32 (≈ 65.4 µM) | 64 (≈ 131 µM) | 1 (≈ 2.04 µM) | 64 (≈ 131 µM) | > 128 | > 128 | > 128 | > 128 | > 128 | 32 (≈ 65.4 µM) | 64 (≈ 131 µM) | 32 (≈ 65.4 µM) | > 128 | 128 (≈ 262 µM) | 5.00 | 
CC(C)(C)OC(=O)NCC(NC(=O)C(=O)c1c[nH]c2ccc(Br)cc12)c1c[nH]c2ccc(Br)cc12 (centres unmarked) [Compound 4, tert-Butyl(2-(5-bromo-1H-indol-3-yl)-2-(2-(5-bromo-1H-indol-3-yl)-2-oxoacetamido)ethyl) carbamate] |  |  |  | 1.6 (≈ 2.65 µM) |  | > 128 | > 128 | > 128 | > 128 | > 128 |  |  |  | > 128 |  | 5.34 | 
O=C(C(=O)N1CCCCC1c1c[nH]c2ccccc12)c1c[nH]c2ccccc12 (centres unmarked) [Compound 6a, 1-(2-(1H-Indol-3-yl)piperidin-1-yl)-2-(1H-indol-3-yl)ethane-1,2-dione] | 8 (0.25) mg/L | > 128 | > 128 | > 128 | > 128 | > 128 | > 128 | > 128 | > 128 | > 128 | > 128 | > 128 | > 128 | > 128 | > 128 |  | 
CC(C)(C)OC(=O)N1CCN(C(=O)C(=O)c2c[nH]c3ccc(Br)cc23)C(c2c[nH]c3ccc(Br)cc23)C1 (centres unmarked) [Compound 6f, tert-Butyl 3-(5-bromo-1H-indol-3-yl)-4-(2-(5-bromo-1H-indol-3-yl)-2-oxoacetyl) piperazine-1-carboxylate] | 1 (0.25) mg/L | > 128 | > 128 | > 128 | > 128 | > 128 | > 128 | > 128 | > 128 | > 128 | > 128 | > 128 | > 128 | > 128 | > 128 |  | 1 (0.5) mg/L
CC(C)(C)OC(=O)NCC(NC(=O)C(=O)c1c[nH]c2ccccc12)c1c[nH]c2ccccc12 (centres unmarked) [Compound 2, tert-Butyl(2-(2-(1H-indol-3-yl)-2-oxoacetamido)-2-(1H-indol-3-yl)ethyl)carbamate] |  | > 128 | > 128 | > 128 | > 128 | > 128 | > 128 | > 128 | > 128 | > 128 | > 128 | > 128 | > 128 | > 128 | > 128 |  | 
